Data on five compounds can be found in patent US9556114B2, “Fluorinated 2-amino-4-(benzylamino)phenylcarbamate derivatives” (SciFluor Life Sciences, Inc., priority 2012, dated 2017).

In this assay the target is T1, cloned KCNQ2/3 potassium channels (encoded by the human KCNQ2/3 gene and expressed in HEK293 cells) (Homo sapiens, UniProt O43525+O43526).
T1 construct: expressed in transfected cells; host or cells: HEK293 cells
As to the kind of experiment: Assessment of KCNQ2/3 channel activation activity, QPatch HT automatic parallel patch clamp. Format: cell-based. The note with it: for Mean % KCNQ2/3 Activation: 5 min exposure, room temperature, HEK293 cells; for Individual Data Points (% Activation): single cell values; for KCNQ2/3 activation activity compared with ezogabine: single concentration (0.1 μM). As for the experimental part: The in vitro effects of ezogabine and Compound 1A on cloned KCNQ2/3 potassium channels (encoded by the human KCNQ2/3 gene and expressed in HEK293 cells) were evaluated at room temperature using the QPatch HT® (Sophion Bioscience A/S, Denmark), an automatic parallel patch clamp system. Each test article was evaluated at 0.01, 0.1, 1, 10 and 100 μM with each concentration tested in at least two cells (n≧2). The duration of exposure to each test article concentration was 5 minutes.
The baseline for each recording was established using a 5-10 minute vehicle application (HBPS+0.3% DMSO). A single test article concentration was applied for a period of 5 minutes after the vehicle, followed by a 3 minute application of 30 μM flupirtine. Each recording ended with a supramaximal dose of 30 μM linopirdine. The % activation was calculated using the following equation by using leak subtracted responses: […]
On the technique in general: In patch-clamp work, channel activity is measured electrically.

Structures are written as SMILES. Where “and” joins values, the source holds several entries; their conditions need not be identical. Identical values can stand only once.

Take `CCOC(=O)Nc1ccc(NCc2ccc(F)cc2)c(F)c1N` [Compound 1A, ethyl(2-amino-3-fluoro-4-((4-fluorobenzyl)amino)phenyl)carbamate]: the “Mean % KCNQ2/3 Activation” value reads like this: (0.01 μM) 31.4%; (0.1 μM) 62.9%; (1 μM) 125.5%; (10 μM) 119.9%; (100 μM) 61.9%. Further, the “Individual Data Points (% Activation)” value (0.01 μM, listed as Compound lA) was 35.9% and 26.9%; the “Individual Data Points (% Activation)” value (0.1 μM, listed as Compound lA) was 98.9% and 43.3% and 46.6%; the “Individual Data Points (% Activation)” value (1 μM, listed as Compound lA) is 123.5% and 127.6%; the “Individual Data Points (% Activation)” value (10 μM, listed as Compound lA) was 119.7% and 120.1%; the “Individual Data Points (% Activation)” value (100 μM, listed as Compound lA) is 56.6% and 67.3%.
`CCOC(=O)Nc1c(N)cc(NCc2ccc(F)cc2)cc1F` [Compound 2A, ethyl(2-amino-6-fluoro-4-((4-fluorobenzyl)amino)phenyl)carbamate]: the “KCNQ2/3 activation activity compared with ezogabine” value is given as “equivalent in activity to ezogabine”.
The same measure, in the same setting: with `CCOC(=O)Nc1cc(F)c(NCc2ccc(F)cc2)cc1N` [Compound 3A, ethyl(2-amino-5-fluoro-4-((4-fluorobenzyl)amino)phenyl)carbamate] the entry was “equivalent in activity to ezogabine”; with `CCOC(=O)Nc1cc(F)c(NCc2ccc(F)cc2)c(F)c1N` [Compound 4A, ethyl(2-amino-3,5-difluoro-4-((4-fluorobenzyl)amino)phenyl)carbamate], “equivalent in activity to ezogabine”.
For `CCOC(=O)Nc1ccc(NCc2ccc(F)cc2)cc1N` [ezogabine, ethyl N-[2-amino-4-[(4-fluorophenyl)methylamino]phenyl]carbamate, reference compound], the “Mean % KCNQ2/3 Activation” value runs as follows: (0.01 μM) 6.6%; (0.1 μM) 40.6%; (1 μM) 94.4%; (10 μM) 132.0%; (100 μM) 104.1%. The “Individual Data Points (% Activation)” value (0.01 μM) is 2.1% and 11.1%; the “Individual Data Points (% Activation)” value (0.1 μM) was 49.1% and 32.2%; the “Individual Data Points (% Activation)” value (1 μM) is 93.6% and 95.2%; the “Individual Data Points (% Activation)” value (10 μM) was 123.7% and 140.4%; the “Individual Data Points (% Activation)” value (100 μM) was 93.8% and 101.9% and 116.5%.
